Test results reported in US12258336B2, “Preparation of seimicarbazide-sensitive amine oxidase inhibitor and use thereof” (SHANGHAI ENNOVABIO PHARMACEUTICALS CO., LTD., priority 2018, dated 2025).

How the values were obtained:
Recombinant human MAO-B = molecular target: T1, Recombinant human MAO-B (Homo sapiens, UniProt P27338); assay: Inhibitory activity on MAO-B; type: biochemical
T1 construct: purchased Sigma M7441
T1 sequence (P27338 1-520): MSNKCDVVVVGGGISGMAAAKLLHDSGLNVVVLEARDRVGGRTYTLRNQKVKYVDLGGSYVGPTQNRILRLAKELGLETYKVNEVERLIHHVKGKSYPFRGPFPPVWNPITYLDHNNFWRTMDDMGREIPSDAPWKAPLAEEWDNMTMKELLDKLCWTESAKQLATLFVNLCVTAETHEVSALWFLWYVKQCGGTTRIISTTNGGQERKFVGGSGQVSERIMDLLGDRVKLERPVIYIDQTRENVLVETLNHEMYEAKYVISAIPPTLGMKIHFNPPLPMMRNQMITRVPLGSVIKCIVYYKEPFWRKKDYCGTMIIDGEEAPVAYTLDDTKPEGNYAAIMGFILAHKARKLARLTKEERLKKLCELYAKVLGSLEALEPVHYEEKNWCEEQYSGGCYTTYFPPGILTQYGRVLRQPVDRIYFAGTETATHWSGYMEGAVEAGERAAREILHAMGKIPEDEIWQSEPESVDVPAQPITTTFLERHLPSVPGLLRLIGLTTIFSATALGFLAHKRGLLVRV
Protocol: Recombinant human MAO-A and MAO-B protein was purchased from Sigma (M7316, M7441). Other reagents are the same as Biological Test Example 1. The final concentration of test compound in 10 μL reaction system was 100 μM to 5 nM when MAO-A and MAO-B were detected. The final concentrations of MAO-A and MAO-B protein in 10 μL reaction system were 70 nM and 300 nM, respectively, while other reaction conditions were the same as those in Biological Test Example 1. Data analysis and IC50 calculation method were the same as those in Biological Test Example 1.

[1] = molecular target: T2, Recombinant human AOC2 protein (Homo sapiens, UniProt O75106); assay: Inhibitory activity on AOC2; type: biochemical
T2 construct: Eli Lilly (provided, not a catalogue product)
T2 sequence (O75106 1-756): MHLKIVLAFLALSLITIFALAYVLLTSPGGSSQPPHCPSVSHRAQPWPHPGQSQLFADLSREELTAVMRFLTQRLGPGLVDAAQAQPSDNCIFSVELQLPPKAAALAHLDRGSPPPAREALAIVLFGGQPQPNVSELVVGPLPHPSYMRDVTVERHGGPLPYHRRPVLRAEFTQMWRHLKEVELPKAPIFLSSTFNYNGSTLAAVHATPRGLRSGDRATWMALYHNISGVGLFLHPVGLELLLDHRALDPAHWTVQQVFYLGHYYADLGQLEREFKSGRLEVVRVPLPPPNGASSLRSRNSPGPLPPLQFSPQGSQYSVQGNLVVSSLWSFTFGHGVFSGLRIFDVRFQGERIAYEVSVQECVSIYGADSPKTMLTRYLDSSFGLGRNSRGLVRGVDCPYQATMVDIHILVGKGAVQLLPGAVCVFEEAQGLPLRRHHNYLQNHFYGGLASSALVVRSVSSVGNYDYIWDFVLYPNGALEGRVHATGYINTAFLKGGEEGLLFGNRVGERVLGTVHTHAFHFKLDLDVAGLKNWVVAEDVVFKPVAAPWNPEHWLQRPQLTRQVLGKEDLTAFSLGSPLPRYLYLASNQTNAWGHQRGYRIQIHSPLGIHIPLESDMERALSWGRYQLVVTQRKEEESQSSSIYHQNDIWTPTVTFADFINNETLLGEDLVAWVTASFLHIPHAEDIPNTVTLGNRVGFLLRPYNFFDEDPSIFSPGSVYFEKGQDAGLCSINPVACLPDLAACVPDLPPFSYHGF
Protocol: Recombinant human AOC2 protein (provided by Eli Lilly). Other reagents are the same as those in Biological Test Example 1. The final concentration of test compound in 10 μL reaction system was 100 μM to 5 nM when AOC2 was detected, while other reaction conditions were the same as those in Biological Test Example 1. Data analysis and IC50 calculation method were the same as those in Biological Test Example 1.

IC50 (Recombinant human MAO-B) [µM]	IC50 [1] [µM]	Compound
> 20	0.1 to 1	CC1(C)CN(C2COC2)CCN1c1ncc(OC/C(=C/F)CN)cn1 [Example 5]
5 to 20	> 1	N#Cc1cc(OC/C(=C/F)CN)cnc1N1CCN(C2COC2)CC1 [Example 7]
> 20	0.1 to 1	CC1CN(c2ncc(OC/C(=C/F)CN)cn2)CC(C)N1C1COC1 (stereo not shown) [Example 1, (E)-2-(((2-(3,5-dimethyl-4-(oxbutan-3-yl)piperazin-1-yl)pyrimidin-5-yl)oxo)methyl)-3-fluoroprop-2-en-1-amine]
> 20	> 1	COC1CC2CC1CN2c1ncc(OC/C(=C/F)CN)cn1 (stereo not shown) [Example 2]
> 20	> 1	NC/C(=C\F)COc1cnc(N2CCC3(CC2)COC3)nc1 [Example 3]
> 20	> 1	NC/C(=C\F)COc1cnc(N2CCN(C3COC3)CC2)nc1 [Example 4, (E)-3-fluoro-2-(((2-(4-(oxbutan-3-yl)piperazin-1-yl)pyrimidin-5-yl)oxo)methyl)prop-2-en-1-amine]
> 20	0.1 to 1	NC/C(=C\F)COc1cnc(N2CCN(c3cnc(N4CCN(C5COC5)CC4)nc3)CC2)nc1 [Example 9]
5 to 20	> 1	NC/C(=C/F)COc1cnc(N2CCN(C3COC3)CC2)nc1 [Example 8]
> 20	> 1	CC1(C)CN(c2ncc(OC/C(=C/F)CN)cn2)CCN1C1COC1 [Example 10]

Compound	IC50 (Recombinant human MAO-B) [µM]	IC50 [1] [µM]
COC1CC2CCC(C1)N2c1ncc(OC/C(=C/F)CN)cn1 (stereo not shown) [Example 12]	> 20	> 1
NC/C(=C\F)COc1cnc(N2CC3CCC(C2)N3C2COC2)nc1 [Example 6]	> 20	0.1 to 1
